In patent publication US20260022142A1, “MACROCYCLIC IMMUNOMODULATORS” (Bristol-Myers Squibb Company, priority 2022, published 2026) one finds IC50 data, which are given here for twelve compounds.

Bridge positions count the residues as written; N and C are the ends. Square brackets hold non-standard residues; d marks the D form. Peptide text beside a SMILES is read from it. * marks the point of attachment. Phe(3,4,5-F3) = N[C@@H](Cc1cc(F)c(F)c(F)c1)C(=O)O; Bip = N[C@@H](Cc1ccc(-c2ccccc2)cc1)C(=O)O; Phe(3-CN) = N#Cc1cccc(C[C@H](N)C(=O)O)c1; Phe(3-F) = N[C@@H](Cc1cccc(F)c1)C(=O)O; Phe(3-Me) = Cc1cccc(C[C@H](N)C(=O)O)c1; Phe(2-Me) = Cc1ccccc1C[C@H](N)C(=O)O; Val(3-OH) = CC(C)(O)[C@H](N)C(=O)O; 4Pal = N[C@@H](Cc1ccncc1)C(=O)O; Aad = N[C@@H](CCCC(=O)O)C(=O)O; Cha = N[C@@H](CC1CCCCC1)C(=O)O; Carboxymethyl = O=C(O)C*; Orn = NCCC[C@H](N)C(=O)O; Aun = NCCCCCCCCCCC(=O)O; Dab = NCC[C@H](N)C(=O)O; Nva = CCC[C@H](N)C(=O)O

As a reminder, the IC50 is the point on the concentration scale where inhibition reaches its midpoint.

T1 sequence (Q15116 25-288): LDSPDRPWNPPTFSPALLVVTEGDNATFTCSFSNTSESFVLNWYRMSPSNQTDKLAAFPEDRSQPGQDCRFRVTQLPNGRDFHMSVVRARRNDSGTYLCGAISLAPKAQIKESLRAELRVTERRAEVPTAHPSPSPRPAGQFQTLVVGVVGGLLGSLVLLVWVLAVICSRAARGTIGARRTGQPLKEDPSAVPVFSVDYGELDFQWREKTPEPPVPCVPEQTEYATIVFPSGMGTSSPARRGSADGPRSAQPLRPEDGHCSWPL

This experiment addresses T1, PD-1/PD-L1 interaction (PE-labeled human PD-L1-Ig binding to Jurkat cell line over-expressing human PD-1) (Homo sapiens, UniProt Q15116).
T1 construct: expressed in transfected cells; host or cells: Jurkat
Description: Jurkat-PD-1 Cell Binding High-Content Screening Assay (CBA). The class given is cell-based. The note with it: Jurkat cell line over-expressing human PD-1; PE-labeled PD-L1-Ig 20 nM final; read-out: Jurkat hPD1-PDL1 IC50. The essentials: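 Binding of fluorescent PD-L1-Ig (20 nM final) to Jurkat-PD-1 cells was measured by automated imaging after 1 h, following a 2 h compound pre-treatment at 37° C.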
`Cc1cccc(C[C@@H]2NC(=O)[C@H](CC(=O)O)NC(=O)[C@H](Cc3ccc(OCC(=O)O)cc3)NC(=O)[C@H](Cc3ccncc3)NC(=O)CSC[C@@H](C(=O)N[C@@H](CCN)C(=O)NCCCCCCCCCCC(=O)O)NC(=O)[C@H](CO)NC(=O)[C@H](C(C)(C)O)NC(=O)[C@H](CC3CCCCC3)NC(=O)[C@H](CCN)NC(=O)[C@@H](CC(C)C)NC(=O)[C@H](CCCN)NC(=O)[C@H](Cc3ccc(OCC(=O)O)cc3)NC(=O)[C@H](Cc3ccc(-c4ccccc4)cc3)NC(=O)[C@H](Cc3ccccc3C)NC2=O)c1` [Compound 2193] ({CH2CO}-[4Pal]Y(Carboxymethyl)D[Phe(3-Me)][Phe(2-Me)][Bip]Y(Carboxymethyl)[Orn][dL][Dab][Cha][Val(3-OH)]SC[Dab][Aun]-OH; thioether N-14): the IC50 came out at 21.7 nM. `Cc1cccc(C[C@@H]2NC(=O)[C@H](CC(=O)O)NC(=O)[C@H](Cc3ccc(OCC(=O)O)cc3)NC(=O)[C@H](Cc3ccncc3)NC(=O)CSC[C@@H](C(=O)N[C@@H](CCN)C(=O)NCCCCCCCCCCC(=O)O)NC(=O)[C@H](CO)NC(=O)[C@H](C(C)(C)O)NC(=O)[C@H](CC3CCCCC3)NC(=O)[C@H](CCN)NC(=O)[C@@H](CC(C)C)NC(=O)[C@H](CCCN)NC(=O)[C@H](Cc3ccc(OCC(=O)O)cc3)NC(=O)[C@H](Cc3ccc(-c4ccccc4)cc3)NC(=O)[C@H](Cc3cccc(F)c3)NC2=O)c1` [Compound 2194] ({CH2CO}-[4Pal]Y(Carboxymethyl)D[Phe(3-Me)][Phe(3-F)][Bip]Y(Carboxymethyl)[Orn][dL][Dab][Cha][Val(3-OH)]SC[Dab][Aun]-OH; thioether N-14): the IC50 amounted to 12.9 nM. As for `Cc1cccc(C[C@@H]2NC(=O)[C@H](CC(=O)O)NC(=O)[C@H](Cc3cccc(C#N)c3)NC(=O)[C@H](Cc3ccncc3)NC(=O)CSC[C@@H](C(=O)N[C@@H](CCN)C(=O)NCCCCCCCCCCC(=O)O)NC(=O)[C@H](CO)NC(=O)[C@H](C(C)(C)O)NC(=O)[C@H](CC3CCCCC3)NC(=O)[C@H](CCN)NC(=O)[C@@H](CC(C)C)NC(=O)[C@H](CCCN)NC(=O)[C@H](Cc3ccc(OCC(=O)O)cc3)NC(=O)[C@H](Cc3ccc(-c4ccccc4)cc3)NC(=O)[C@H](Cc3ccc(OCC(=O)O)cc3)NC2=O)c1` [Compound 2195] ({CH2CO}-[4Pal][Phe(3-CN)]D[Phe(3-Me)]Y(Carboxymethyl)[Bip]Y(Carboxymethyl)[Orn][dL][Dab][Cha][Val(3-OH)]SC[Dab][Aun]-OH; thioether N-14), the 50% inhibitory concentration (IC50) came out at 11.8 nM. Regarding `Cc1cccc(C[C@@H]2NC(=O)[C@H](CC(=O)O)NC(=O)[C@H](Cc3cccc(C#N)c3)NC(=O)[C@H]([C@@H](C)O)NC(=O)CSC[C@@H](C(=O)N[C@@H](CCN)C(=O)NCCCCCCCCCCC(=O)O)NC(=O)[C@H](CO)NC(=O)[C@H](C(C)(C)O)NC(=O)[C@H](CC3CCCCC3)NC(=O)[C@H](CCN)NC(=O)[C@@H](CC(C)C)NC(=O)[C@H](CCCN)NC(=O)[C@H](Cc3ccc(OCC(=O)O)cc3)NC(=O)[C@H](Cc3ccc(-c4ccccc4)cc3)NC(=O)[C@H](Cc3ccc(OCC(=O)O)cc3)NC2=O)c1` [Compound 2196] ({CH2CO}-T[Phe(3-CN)]D[Phe(3-Me)]Y(Carboxymethyl)[Bip]Y(Carboxymethyl)[Orn][dL][Dab][Cha][Val(3-OH)]SC[Dab][Aun]-OH; thioether N-14), the IC50 turned out to be 24.4 nM. The same measure for `COc1ccc(C[C@@H]2NC(=O)[C@H](Cc3ccncc3)NC(=O)CSC[C@@H](C(=O)N[C@@H](CCN)C(=O)NCCCCCCCCCCC(=O)O)NC(=O)[C@H](CO)NC(=O)[C@H](C(C)(C)O)NC(=O)[C@H](CC3CCCCC3)NC(=O)[C@H](CCN)NC(=O)[C@@H](CC(C)C)NC(=O)[C@H](CCCN)NC(=O)[C@H](Cc3ccc(OCC(=O)O)cc3)NC(=O)[C@H](Cc3ccc(-c4ccccc4)cc3)NC(=O)[C@H](Cc3ccc(OCC(=O)O)cc3)NC(=O)[C@H](Cc3cccc(C)c3)NC(=O)[C@H](CC(=O)O)NC2=O)cc1` [Compound 2197] ({CH2CO}-[4Pal]Y(Me)D[Phe(3-Me)]Y(Carboxymethyl)[Bip]Y(Carboxymethyl)[Orn][dL][Dab][Cha][Val(3-OH)]SC[Dab][Aun]-OH; thioether N-14): 15.1 nM; for `Cc1cccc(C[C@@H]2NC(=O)[C@H](CC(=O)O)NC(=O)[C@H](CCCC(=O)O)NC(=O)[C@H]([C@@H](C)O)NC(=O)CSC[C@@H](C(=O)N[C@@H](CCN)C(=O)NCCCCCCCCCCC(=O)O)NC(=O)[C@H](CO)NC(=O)[C@H](C(C)(C)O)NC(=O)[C@H](CC3CCCCC3)NC(=O)[C@H](CCN)NC(=O)[C@@H](CC(C)C)NC(=O)[C@H](CCCN)NC(=O)[C@H](Cc3ccc(OCC(=O)O)cc3)NC(=O)[C@H](Cc3ccc(-c4ccccc4)cc3)NC(=O)[C@H](Cc3ccc(OCC(=O)O)cc3)NC2=O)c1` [Compound 2198] ({CH2CO}-T[Aad]D[Phe(3-Me)]Y(Carboxymethyl)[Bip]Y(Carboxymethyl)[Orn][dL][Dab][Cha][Val(3-OH)]SC[Dab][Aun]-OH; thioether N-14): 48.1 nM. For the compound `Cc1cccc(C[C@@H]2NC(=O)[C@H](CC(=O)O)NC(=O)[C@H](Cc3ccc(OCC(=O)O)cc3)NC(=O)[C@H](Cc3cc(F)c(F)c(F)c3)NC(=O)CSC[C@@H](C(=O)N[C@@H](CCN)C(=O)NCCCCCCCCCCC(=O)O)NC(=O)[C@H](CO)NC(=O)[C@H](C(C)(C)O)NC(=O)[C@H](CC3CCCCC3)NC(=O)[C@H](CCN)NC(=O)[C@@H](CC(C)C)NC(=O)[C@H](CCCN)NC(=O)[C@H](Cc3ccc(OCC(=O)O)cc3)NC(=O)[C@H](Cc3ccc(-c4ccccc4)cc3)NC(=O)[C@H](Cc3ccc(OCC(=O)O)cc3)NC2=O)c1` [Compound 2199] ({CH2CO}-[Phe(3,4,5-F3)]Y(Carboxymethyl)D[Phe(3-Me)]Y(Carboxymethyl)[Bip]Y(Carboxymethyl)[Orn][dL][Dab][Cha][Val(3-OH)]SC[Dab][Aun]-OH; thioether N-14), the IC50 stood at 50 nM.

`Cc1cccc(C[C@@H]2NC(=O)[C@H](CC(=O)O)NC(=O)[C@H](Cc3cc(F)c(F)c(F)c3)NC(=O)[C@H](Cc3ccncc3)NC(=O)CSC[C@@H](C(=O)N[C@@H](CCN)C(=O)NCCCCCCCCCCC(=O)O)NC(=O)[C@H](CO)NC(=O)[C@H](C(C)(C)O)NC(=O)[C@H](CC3CCCCC3)NC(=O)[C@H](CCN)NC(=O)[C@@H](CC(C)C)NC(=O)[C@H](CCCN)NC(=O)[C@H](Cc3ccc(OCC(=O)O)cc3)NC(=O)[C@H](Cc3ccc(-c4ccccc4)cc3)NC(=O)[C@H](Cc3ccc(OCC(=O)O)cc3)NC2=O)c1` [Compound 2200] ({CH2CO}-[4Pal][Phe(3,4,5-F3)]D[Phe(3-Me)]Y(Carboxymethyl)[Bip]Y(Carboxymethyl)[Orn][dL][Dab][Cha][Val(3-OH)]SC[Dab][Aun]-OH; thioether N-14): the half-maximal inhibitory concentration (IC50) came to 28.8 nM. The value for `CC(C)C[C@H]1NC(=O)[C@H](CCCN)NC(=O)[C@H](Cc2ccc(OCC(=O)O)cc2)NC(=O)[C@H](Cc2ccc(-c3ccccc3)cc2)NC(=O)[C@H](Cc2ccc(OCC(=O)O)cc2)NC(=O)[C@H](Cc2cc(F)c(F)c(F)c2)NC(=O)[C@H](CC(=O)O)NC(=O)[C@H](Cc2ccc(OCC(=O)O)cc2)NC(=O)[C@H](Cc2ccncc2)NC(=O)CSC[C@@H](C(=O)N[C@@H](CCN)C(=O)NCCCCCCCCCCC(=O)O)NC(=O)[C@H](CO)NC(=O)[C@H](C(C)(C)O)NC(=O)[C@H](CC2CCCCC2)NC(=O)[C@H](CCN)NC1=O` [Compound 2201] ({CH2CO}-[4Pal]Y(Carboxymethyl)D[Phe(3,4,5-F3)]Y(Carboxymethyl)[Bip]Y(Carboxymethyl)[Orn][dL][Dab][Cha][Val(3-OH)]SC[Dab][Aun]-OH; thioether N-14) was 78.4 nM; that for `Cc1cccc(C[C@@H]2NC(=O)[C@H](CC(=O)O)NC(=O)[C@H](Cc3ccc(OCC(=O)O)cc3)NC(=O)[C@H](Cc3ccncc3)NC(=O)CSC[C@@H](C(=O)N[C@@H](CCN)C(=O)NCCCCCCCCCCC(=O)O)NC(=O)[C@H](CO)NC(=O)[C@H](C(C)(C)O)NC(=O)[C@H](CC3CCCCC3)NC(=O)[C@H](CCN)NC(=O)[C@@H](CC(C)C)NC(=O)[C@H](CCCN)NC(=O)[C@H](Cc3ccc(OCC(=O)O)cc3)NC(=O)[C@H](Cc3ccc(-c4ccccc4)cc3)NC(=O)[C@H](Cc3cc(F)c(F)c(F)c3)NC2=O)c1` [Compound 2202] ({CH2CO}-[4Pal]Y(Carboxymethyl)D[Phe(3-Me)][Phe(3,4,5-F3)][Bip]Y(Carboxymethyl)[Orn][dL][Dab][Cha][Val(3-OH)]SC[Dab][Aun]-OH; thioether N-14) was 25.9 nM. As to `Cc1cccc(C[C@@H]2NC(=O)[C@H](CC(=O)O)NC(=O)[C@H](Cc3ccc(OCC(=O)O)cc3)NC(=O)[C@H](Cc3ccncc3)NC(=O)CSC[C@@H](C(=O)N[C@@H](CCN)C(=O)NCCCCCCCCCCC(=O)O)NC(=O)[C@H](CO)NC(=O)[C@H](C(C)(C)O)NC(=O)[C@H](CC3CCCCC3)NC(=O)[C@H](CCN)NC(=O)[C@@H](CC(C)C)NC(=O)[C@H](CCCN)NC(=O)[C@H](Cc3cc(F)c(F)c(F)c3)NC(=O)[C@H](Cc3ccc(-c4ccccc4)cc3)NC(=O)[C@H](Cc3ccc(OCC(=O)O)cc3)NC2=O)c1` [Compound 2203] ({CH2CO}-[4Pal]Y(Carboxymethyl)D[Phe(3-Me)]Y(Carboxymethyl)[Bip][Phe(3,4,5-F3)][Orn][dL][Dab][Cha][Val(3-OH)]SC[Dab][Aun]-OH; thioether N-14), the concentration for half-maximal inhibition (IC50) was found to be 41.7 nM. The same measure for `CCC[C@@H]1NC(=O)CSC[C@@H](C(=O)N[C@@H](CCN)C(=O)NCCCCCCCCCCC(=O)O)NC(=O)[C@H](CO)NC(=O)[C@H](C(C)(C)O)NC(=O)[C@H](CC2CCCCC2)NC(=O)[C@H](CCN)NC(=O)[C@@H](CC(C)C)NC(=O)[C@H](CCCN)NC(=O)[C@H](Cc2ccc(OCC(=O)O)cc2)NC(=O)[C@H](Cc2ccc(-c3ccccc3)cc2)NC(=O)[C@H](Cc2ccc(OCC(=O)O)cc2)NC(=O)[C@H](Cc2cccc(C)c2)NC(=O)[C@H](CC(=O)O)NC(=O)[C@H](Cc2ccc(OCC(=O)O)cc2)NC1=O` [Compound 2204] ({CH2CO}-[Nva]Y(Carboxymethyl)D[Phe(3-Me)]Y(Carboxymethyl)[Bip]Y(Carboxymethyl)[Orn][dL][Dab][Cha][Val(3-OH)]SC[Dab][Aun]-OH; thioether N-14): 10.6 nM.
